Like-named read-outs stand apart in the source and are kept apart here.
Columns and labels:
Nae I [1] = molecular target: T1, Nae I (Lentzea aerocolonigenes, UniProt P50187); experiment: Activation of Nae I cleavage of M13mp18 RFI DNA; type: biochemical, Nocardia aerocolonigenes; design: key to Activation of Nae I cleavage of M13mp18 RF1 DNA: ++++: full activation; ++: about 50% activation; -: no activation
T1 sequence (P50187 1-317): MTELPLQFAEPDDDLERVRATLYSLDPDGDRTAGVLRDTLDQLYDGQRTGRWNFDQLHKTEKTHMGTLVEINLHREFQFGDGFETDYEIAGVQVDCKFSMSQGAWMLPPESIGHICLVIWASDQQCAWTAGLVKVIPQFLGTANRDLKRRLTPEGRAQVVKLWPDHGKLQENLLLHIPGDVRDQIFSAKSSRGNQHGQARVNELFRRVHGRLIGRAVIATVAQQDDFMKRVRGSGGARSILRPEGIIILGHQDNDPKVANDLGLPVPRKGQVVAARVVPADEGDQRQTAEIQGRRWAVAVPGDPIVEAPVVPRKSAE

Nae I [2] = molecular target: T1, Nae I; experiment: biochemical; conditions: 1 h, read-out: Increase in Nae I cleavage of SV40 slow site
Nae I [3] = molecular target: T1, Nae I; conditions: 2 mM spermidine, SV40 DNA 2.9 nM, 1.1 units Nae I, 1 hour 37° C.

For “GGGTGCCGGCAGGG (chemistry not given here) [SEQ ID NO: 8]”, the “Activation as activating sequence for Nae I” value (Nae I [1]; procedures of Example 1) was 100%.

With “GCCGGCGGTGTGGGCAGCTGGTG (chemistry not given here) [Oligonucleotide duplex 6]” the “Activation of Nae I cleavage of M13mp18 RF1 DNA” value (“Activation … of M13mp18 RF1 DNA” below) (Nae I [1]) was “-”.

With “GCGCCGGCGG (chemistry not given here) [Oligonucleotide duplex 4]” the “Activation … of M13mp18 RF1 DNA” value (Nae I [1]) was “-”.

“GCCGGC (chemistry not given here) [Oligonucleotide duplex 7]” was tested, and the “Activation … of M13mp18 RF1 DNA” value (Nae I [1]; compared to cleavage caused by an equal concentration of pBR322 Nae I sites) was “-”.

“CTGGTGGTGGGCGCCGGC (chemistry not given here) [Oligonucleotide duplex 5]” was tested, and the “Activation … of M13mp18 RF1 DNA” value (Nae I [1]) was “-”.

With `NCCCCNCCCN` [spermidine] the fold induction at 2000 µM (Nae I [2]) was 40, the “Spermidine concentration needed to mimic the effect of 1 mM at low salt” value (Nae I [1]; 1 mM Mg2+ and 50 mM Na+) was 6 mM and the “Spermidine concentration at which the switch occurs (inhibition in presence of activating DNA)” value (Nae I [1]; 50 mM NaCl and 10 mM MgCl2) was 8 mM. The “Spermidine concentration at which the switch occurs (inhibition in presence of activating DNA)” value (Nae I [1]; low salt concentration) was 1 mM, the “Effect on cleavage of resistant Nae I sites such as in M13mp18 DNA” value (Nae I [1]; spermidine at 1 mM, low salt) was “greatly activated” and the “Spermidine concentration that switches on Nae I cleavage of resistant sites” value (Nae I [1]; spermidine by itself, low salt conditions) was “about 1 mM”. For the same compound, the “Nae I cleavage of SV40 slow site” value (Nae I [3]) was 17%.

For “TGGTGGGCGCCGGCGGTGTGGGCA (TTGGTGGGCGCCGGCGGTGTGGGCA; chemistry not given here) [Oligonucleotide duplex 2]”, the “Activation … of M13mp18 RF1 DNA” value (Nae I [1]) was “++++”.

“GGGCGCCGGCGGTG (chemistry not given here) [Oligonucleotide duplex 3]” was tested, and the “Activation … of M13mp18 RF1 DNA” value (Nae I [1]) was “++ (key: ++++: full activation; ++: about 50% activation; -: no activation)”.

From patent US5418150A, “Method of cleaving DNA” (priority 1993, dated 1995)
